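Protocol summary: plate cells (96-well), add compound at 5 concentrations, incubate 48 h, interpolate endpoints linearly. GI50 = concentration required for 50% inhibition of growth.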 Active and inactive are the calls of the source. No stated cut-off is given here; in the data, active = GI50 up to about 1.1 µM and inactive = higher.
Tests used:
Test in all cases: DTP human tumour cell line panel, 48 h
NCI-H23 = system: NCI-H23
CCRF-CEM = system: CCRF-CEM
SK-OV-3 = system: SK-OV-3
PC-3 = system: PC-3
SK-MEL-28 = system: SK-MEL-28
HOP-92 = system: HOP-92
UACC-62 = system: UACC-62
SNB-19 = system: SNB-19
OVCAR-4 = system: OVCAR-4
BT-549 = system: BT-549
OVCAR-5 = system: OVCAR-5
HOP-62 = system: HOP-62
SR = system: SR
HCT-116 = system: HCT-116
HL-60 = system: HL-60
COLO 205 = system: COLO 205
OVCAR-3 = system: OVCAR-3
RPMI-8226 = system: RPMI-8226
UO-31 = system: UO-31
SW-620 = system: SW-620
HT-29 = system: HT-29
MCF7 = system: MCF7
LOX IMVI = system: LOX IMVI
MOLT-4 = system: MOLT-4
U-251 = system: U-251
HCT-15 = system: HCT-15
OVCAR-8 = system: OVCAR-8
786-0 = system: 786-0
A498 = system: A498
DU-145 = system: DU-145
T47D = system: T47D
HCC 2998 = system: HCC 2998
ACHN = system: ACHN
MDA-MB-231 = system: MDA-MB-231
SF-295 = system: SF-295
CAKI-1 = system: CAKI-1
SN12C = system: SN12C
UACC-257 = system: UACC-257
SK-MEL-5 = system: SK-MEL-5
EKVX = system: EKVX
KM12 = system: KM12
M14 = system: M14
SNB-75 = system: SNB-75
RXF 393 = system: RXF 393
NCI-H460 = system: NCI-H460
Hs-578T = system: Hs-578T
NCI/ADR-RES = system: NCI/ADR-RES
SF-268 = system: SF-268
SK-MEL-2 = system: SK-MEL-2
A549 = system: A549
MDA-N = system: MDA-N
IGROV-1 = system: IGROV-1
SF-539 = system: SF-539
NCI-H226 = system: NCI-H226
MDA-MB-435 = system: MDA-MB-435
TK-10 = system: TK-10
Malme-3M = system: Malme-3M
NCI-H522 = system: NCI-H522
K562 = system: K562

SMILES: C=C1C(O)C2OC(=O)C(=C)C2C(OC(=O)/C(C)=C/C)CC2(C)OC2C2OC12 (stereo not given)
- GI50 (NCI-H23): 8.28 µM (inactive)
- GI50 (CCRF-CEM): 12.6 µM (inactive)
- GI50 (SK-OV-3): 43.6 µM (inactive)
- GI50 (PC-3): 15.3 µM (inactive)
- GI50 (SK-MEL-28): 20.4 µM (inactive)
- GI50 (HOP-92): 19.4 µM (inactive)
- GI50 (UACC-62): 15.3 µM (inactive)
- GI50 (SNB-19): 19.5 µM (inactive)
- GI50 (OVCAR-4): 2.71 µM (inactive)
- GI50 (BT-549): 7.71 µM (inactive)
- GI50 (OVCAR-5): 5.89 µM (inactive)
- GI50 (HOP-62): 14.5 µM (inactive)
- GI50 (SR): 1.93 µM (inactive)
- GI50 (HCT-116): 5.22 µM (inactive)
- GI50 (HL-60): 2.52 µM (inactive)
- GI50 (COLO 205): 7.1 µM (inactive)
- GI50 (OVCAR-3): 6.28 µM (inactive)
- GI50 (RPMI-8226): 2.58 µM (inactive)
- GI50 (UO-31): 5.98 µM (inactive)
- GI50 (SW-620): 8.04 µM (inactive)
- GI50 (HT-29): 5.47 µM (inactive)
- GI50 (MCF7): 4.44 µM (inactive)
- GI50 (LOX IMVI): 6.68 µM (inactive)
- GI50 (MOLT-4): 0.634 µM (active)
- GI50 (U-251): 17.2 µM (inactive)
- GI50 (HCT-15): 2.55 µM
- GI50 (OVCAR-8): 6.11 µM (inactive)
- GI50 (786-0): 6.31 µM (inactive)
- GI50 (A498): 15.3 µM (inactive)
- GI50 (DU-145): 7.14 µM (inactive)
- GI50 (T47D): 14.3 µM (inactive)
- GI50 (HCC 2998): 4.89 µM (inactive)
- GI50 (ACHN): 3.69 µM (inactive)
- GI50 (MDA-MB-231): 8.36 µM (inactive)
- GI50 (SF-295): 14.2 µM (inactive)
- GI50 (CAKI-1): 10.2 µM (inactive)
- GI50 (SN12C): 2.82 µM (inactive)
- GI50 (UACC-257): 15.7 µM (inactive)
- GI50 (SK-MEL-5): 6.22 µM (inactive)
- GI50 (EKVX): 10.4 µM (inactive)
- GI50 (KM12): 2.86 µM (inactive)
- GI50 (M14): 18 µM (inactive)
- GI50 (SNB-75): 10.4 µM (inactive)
- GI50 (RXF 393): 4.85 µM (inactive)
- GI50 (NCI-H460): 3.78 µM (inactive)
- GI50 (Hs-578T): 20.7 µM (inactive)
- GI50 (NCI/ADR-RES): 7.93 µM (inactive)
- GI50 (SF-268): 4.67 µM (inactive)
- GI50 (SK-MEL-2): 5.47 µM (inactive)
- GI50 (A549): 19.8 µM (inactive)
- GI50 (MDA-N): 2.2 µM (inactive)
- GI50 (IGROV-1): 6.15 µM (inactive)
- GI50 (SF-539): 6.85 µM (inactive)
- GI50 (NCI-H226): > 100 µM (inactive)
- GI50 (MDA-MB-435): 5.74 µM (inactive)
- GI50 (TK-10): 14.4 µM (inactive)
- GI50 (Malme-3M): 10.3 µM (inactive)
- GI50 (NCI-H522): 3.15 µM (inactive)

SMILES: O=C(O)CCC(C(=O)O)N1C(=O)c2ccccc2C1=O (stereo not given)
- GI50 (NCI-H23): > 100 µM (inactive)
- GI50 (CCRF-CEM): > 100 µM (inactive)
- GI50 (SK-OV-3): > 100 µM (inactive)
- GI50 (PC-3): > 100 µM (inactive)
- GI50 (SK-MEL-28): > 100 µM (inactive)
- GI50 (HOP-92): > 100 µM (inactive)
- GI50 (UACC-62): > 100 µM (inactive)
- GI50 (SNB-19): > 100 µM (inactive)
- GI50 (OVCAR-4): > 100 µM (inactive)
- GI50 (BT-549): > 100 µM (inactive)
- GI50 (OVCAR-5): > 100 µM (inactive)
- GI50 (HOP-62): > 100 µM (inactive)
- GI50 (SR): > 100 µM (inactive)
- GI50 (HCT-116): > 100 µM (inactive)
- GI50 (HL-60): > 100 µM (inactive)
- GI50 (COLO 205): > 100 µM (inactive)
- GI50 (OVCAR-3): > 100 µM (inactive)
- GI50 (RPMI-8226): > 100 µM (inactive)
- GI50 (UO-31): > 100 µM (inactive)
- GI50 (SW-620): > 100 µM (inactive)
- GI50 (HT-29): > 100 µM (inactive)
- GI50 (MCF7): > 100 µM (inactive)
- GI50 (LOX IMVI): > 100 µM (inactive)
- GI50 (U-251): > 100 µM (inactive)
- GI50 (HCT-15): > 100 µM
- GI50 (OVCAR-8): > 100 µM (inactive)
- GI50 (786-0): > 100 µM (inactive)
- GI50 (A498): > 100 µM (inactive)
- GI50 (DU-145): > 100 µM (inactive)
- GI50 (T47D): > 100 µM (inactive)
- GI50 (HCC 2998): > 100 µM (inactive)
- GI50 (ACHN): > 100 µM (inactive)
- GI50 (MDA-MB-231): > 100 µM (inactive)
- GI50 (SF-295): > 100 µM (inactive)
- GI50 (CAKI-1): > 100 µM (inactive)
- GI50 (SN12C): > 100 µM (inactive)
- GI50 (UACC-257): > 100 µM (inactive)
- GI50 (SK-MEL-5): > 100 µM (inactive)
- GI50 (EKVX): > 100 µM (inactive)
- GI50 (KM12): > 100 µM (inactive)
- GI50 (M14): > 100 µM (inactive)
- GI50 (SNB-75): > 100 µM (inactive)
- GI50 (RXF 393): > 100 µM (inactive)
- GI50 (NCI-H460): > 100 µM (inactive)
- GI50 (Hs-578T): > 100 µM (inactive)
- GI50 (NCI/ADR-RES): > 100 µM (inactive)
- GI50 (SF-268): > 100 µM (inactive)
- GI50 (SK-MEL-2): > 100 µM (inactive)
- GI50 (A549): > 100 µM (inactive)
- GI50 (MDA-N): > 100 µM (inactive)
- GI50 (IGROV-1): > 100 µM (inactive)
- GI50 (K562): > 100 µM (inactive)
- GI50 (NCI-H226): > 100 µM (inactive)
- GI50 (MDA-MB-435): > 100 µM (inactive)
- GI50 (TK-10): > 100 µM (inactive)
- GI50 (Malme-3M): > 100 µM (inactive)
- GI50 (NCI-H522): > 100 µM (inactive)

Reference: ChEMBL document CHEMBL1201862, “PubChem BioAssay data set” (2004)
